In paper PMC6753678, “Fueling Open Innovation for Malaria Transmission-Blocking Drugs: Hundreds of Molecules Targeting Early Parasite Mosquito Stages” (Frontiers in Microbiology, 2019):

Tests used:
[1] = tested on: P. falciparum female gametocytes; design: method as in Miguel-Blanco et al 2017; details: TCAMS library screen; ref Miguel-Blanco et al 2017; read-out: Pf FGAA IC50; cited from earlier work
HepG2 cells = details: HepG2 value reported with Pf FGAA screen; ref Miguel-Blanco et al 2017; cited from earlier work
[2] = tested on: P. falciparum female gametocytes; assay: P. falciparum female gametogenesis assay (Pf FGAA); details: 1: YES; 0: NO

CC(C)C1=CC(=NOS(=O)(=O)c2ccccc2)C=C(C(C)C)C1=O [TCMDC-124172]
IC50 [1]: 880 nM | HepG2 cytoxicity (Pf FGAA screen) (HepG2 cells): 21.70 µM | Is compound selective in assay? Pf FGAA active? [2]: 1 (1: YES)

CCN1CCN(c2ccc(Nc3c4ccccc4nc4ccccc34)cc2)CC1 [TCMDC-124255]
IC50 [1]: 1000 nM | HepG2 cytoxicity (Pf FGAA screen) (HepG2 cells): 4.57 µM | Is compound selective in assay? Pf FGAA active? [2]: 0 (0: NO)

Cc1ccc(Cl)c2sc(N3CCN(C(=O)c4ccc([N+](=O)[O-])o4)CC3)nc12 [TCMDC-124311]
IC50 [1]: 1440 nM | HepG2 cytoxicity (Pf FGAA screen) (HepG2 cells): 25.79 µM | Is compound selective in assay? Pf FGAA active? [2]: 1 (1: YES)

Cc1ccc(C)c2sc(N3CCN(C(=O)c4ccc([N+](=O)[O-])o4)CC3)nc12 [TCMDC-124315]
IC50 [1]: 1120 nM | HepG2 cytoxicity (Pf FGAA screen) (HepG2 cells): 37.65 µM | Is compound selective in assay? Pf FGAA active? [2]: 1 (1: YES)

O=C(c1ccc([N+](=O)[O-])o1)N1CCN(c2nc3c(Cl)cccc3s2)CC1 [TCMDC-124316]
IC50 [1]: 1100 nM | HepG2 cytoxicity (Pf FGAA screen) (HepG2 cells): 41.96 µM | Is compound selective in assay? Pf FGAA active? [2]: 1 (1: YES)

CC(C)(C)Nc1cc(C2CC2)nc(-c2ccccn2)n1 [TCMDC-124453]
IC50 [1]: 100 nM | HepG2 cytoxicity (Pf FGAA screen) (HepG2 cells): >100 µM | Is compound selective in assay? Pf FGAA active? [2]: 1 (1: YES)

O=C(Nc1ccc([N+](=O)[O-])cc1)Nc1cc(OCC(F)(F)F)cc(OCC(F)(F)F)c1 [TCMDC-124533]
IC50 [1]: 1160 nM | HepG2 cytoxicity (Pf FGAA screen) (HepG2 cells): 6.24 µM | Is compound selective in assay? Pf FGAA active? [2]: 0 (0: NO)

CC1Cc2ccccc2N1S(=O)(=O)c1cccc(C(=O)Nc2nc(-c3ccccn3)cs2)c1 (stereo not drawn) [TCMDC-124559]
IC50 [1]: 340 nM | HepG2 cytoxicity (Pf FGAA screen) (HepG2 cells): 50.12 µM | Is compound selective in assay? Pf FGAA active? [2]: 1 (1: YES)

c1ccn2c(Sc3ncnc4sccc34)ncc2c1 [TCMDC-124602]
IC50 [1]: 240 nM | HepG2 cytoxicity (Pf FGAA screen) (HepG2 cells): >100 µM | Is compound selective in assay? Pf FGAA active? [2]: 1 (1: YES)

Cl.Clc1cc(Br)ccc1-c1ccc(CNCC2CCNCC2)o1 [TCMDC-124617]
IC50 [1]: 720 nM | HepG2 cytoxicity (Pf FGAA screen) (HepG2 cells): 4.37 µM | Is compound selective in assay? Pf FGAA active? [2]: 0 (0: NO)

CN1CCC(N2CCC(Oc3cccc(C(=O)NCCCC4CCCC4)c3)CC2)CC1 [TCMDC-124677]
IC50 [1]: 1470 nM | HepG2 cytoxicity (Pf FGAA screen) (HepG2 cells): 4.90 µM | Is compound selective in assay? Pf FGAA active? [2]: 0 (0: NO)

Cc1ccc2c(c1)c(C1CCN(C(=O)c3ccc([N+](=O)[O-])o3)CC1)cn2C [TCMDC-124787]
IC50 [1]: 2120 nM | HepG2 cytoxicity (Pf FGAA screen) (HepG2 cells): 28.85 µM | Is compound selective in assay? Pf FGAA active? [2]: 1 (1: YES)

Cc1sc2nc(CN3CCCC3)nc(-n3c(NCCO)nc4ccccc43)c2c1C [TCMDC-124811]
IC50 [1]: 7050 nM | HepG2 cytoxicity (Pf FGAA screen) (HepG2 cells): 25.73 µM | Is compound selective in assay? Pf FGAA active? [2]: 0 (0: NO)

C=CCc1cccc(CN2CCC(c3cc(=O)[nH]c(-c4ccccn4)n3)CC2)c1O [TCMDC-124851]
IC50 [1]: 1740 nM | HepG2 cytoxicity (Pf FGAA screen) (HepG2 cells): 11.49 µM | Is compound selective in assay? Pf FGAA active? [2]: 0 (0: NO)

CCCc1cc(=O)[nH]c(-n2nc(C)cc2NC(=O)CC(c2ccccc2)c2ccccc2)n1 [TCMDC-124940]
IC50 [1]: 1300 nM | HepG2 cytoxicity (Pf FGAA screen) (HepG2 cells): >100 µM | Is compound selective in assay? Pf FGAA active? [2]: 1 (1: YES)

COc1ccc(NC(=O)Nc2ccc(Nc3nc(C)cc(N4CCCC4)n3)cc2)cc1 [TCMDC-124958]
IC50 [1]: 1080 nM | HepG2 cytoxicity (Pf FGAA screen) (HepG2 cells): 11.89 µM | Is compound selective in assay? Pf FGAA active? [2]: 1 (1: YES)

O=C(c1ccc([N+](=O)[O-])o1)N1CCN(c2nc3c(F)cc(F)cc3s2)CC1 [TCMDC-125149]
IC50 [1]: 1310 nM | HepG2 cytoxicity (Pf FGAA screen) (HepG2 cells): >100 µM | Is compound selective in assay? Pf FGAA active? [2]: 1 (1: YES)

CNCCCNCc1ccc(-c2ccc(F)c(Cl)c2)o1.Cl [TCMDC-125237]
IC50 [1]: 1870 nM | HepG2 cytoxicity (Pf FGAA screen) (HepG2 cells): 10.60 µM | Is compound selective in assay? Pf FGAA active? [2]: 0 (0: NO)

COc1cc(OC)cc(C(=O)Nc2nc(-c3ccccn3)cs2)c1 [TCMDC-125345]
IC50 [1]: 360 nM | HepG2 cytoxicity (Pf FGAA screen) (HepG2 cells): 39.82 µM | Is compound selective in assay? Pf FGAA active? [2]: 1 (1: YES)

CC(Nc1cc(-c2ccccn2)nc(-c2ccccn2)n1)c1ccccc1 (stereo not drawn) [TCMDC-125420]
IC50 [1]: 210 nM | HepG2 cytoxicity (Pf FGAA screen) (HepG2 cells): 6.18 µM | Is compound selective in assay? Pf FGAA active? [2]: 1 (1: YES)

c1ccc(CNc2cc(-c3ccccn3)nc(-c3ccccn3)n2)cc1 [TCMDC-125421]
IC50 [1]: 320 nM | HepG2 cytoxicity (Pf FGAA screen) (HepG2 cells): 13.04 µM | Is compound selective in assay? Pf FGAA active? [2]: 1 (1: YES)

Fc1ccc2nc(Nc3nc(-c4ccccn4)cs3)sc2c1 [TCMDC-125540]
IC50 [1]: 54.3 nM | HepG2 cytoxicity (Pf FGAA screen) (HepG2 cells): 58.31 µM | Is compound selective in assay? Pf FGAA active? [2]: 1 (1: YES)
